Experimental data taken from patent US6706855B1, “Antimicrobial polymer” (Avecia Limited, priority 1999, dated 2004).

Assays:
[1] = system: Candida albicans NCYC 10231; test: Minimum Inhibitory Concentration (MIC) against Candida albicans; format: cell-based; settings: Fungi
Method: (§1) The Minimum Inhibitory Concentration (MIC) against a range of fungi and bacteria were determined for each of the antimicrobial copolymers prepared in Examples 1 to 4 and Comparative Example A. The MIC results are shown in Table 3: […]

[2] = system: Penicillium funiculosum IMI 114933; test: Minimum Inhibitory Concentration (MIC) against Penicillium funiculosum; format: cell-based; settings: Fungi
Method: as §1

[3] = system: Bacillus subtilis NCIB 1650; test: Minimum Inhibitory Concentration (MIC) against Bacillus subtilis; format: cell-based; settings: Bacteria
Method: as §1

[4] = system: Escherichia coli NCIB 9132; test: Minimum Inhibitory Concentration (MIC) against Escherichia coli; format: cell-based; settings: Bacteria
Method: as §1

[5] = system: Pseudomonas aeruginosa NCIB 10421; test: Minimum Inhibitory Concentration (MIC) against Pseudomonas aeruginosa; format: cell-based; settings: Bacteria
Method: as §1

[6] = system: Staphylococcus aureus NCIB 9518; test: Minimum Inhibitory Concentration (MIC) against Staphylococcus aureus; format: cell-based; settings: Bacteria
Method: as §1

[7] = system: Pseudomonas fluorescens (with Lux AB gene) our ref D481; test: Minimum Inhibitory Concentration (MIC) against Pseudomonas fluorescens; format: cell-based; settings: Bacteria
Method: as §1

[8] = system: Klebsiella pneumoniae ATCC 4352; test: Minimum Inhibitory Concentration (MIC) against Klebsiella pneumoniae; format: cell-based; settings: Bacteria
Method: as §1

[9] = system: a range of fungi and bacteria; test: MIC against a range of fungi and bacteria, overall statement; format: cell-based; settings: summary of Table 3; compared to Comparative Example A or to the copolymers
Method: as §1

## NCCCCCCNc1ccc2c3c(cccc13)C(=O)N(CCCCCCN)C2=O [Marker 1, N-(6-aminohexyl)-4-(6-aminohexylamino)-1,8-naphthalimide]
[1]
  MIC Ca: 999
[2]
  MIC Pp: 999
[3]
  MIC Bs: 500
[4]
  MIC Ec: 500
[5]
  MIC Psa: 999
[6]
  MIC Sa: 32
[7]
  MIC Ps.fl: 500
[8]
  MIC K.pn: 999
[9]
  antimicrobial effect (MIC, in words): little or no antimicrobial effect
other
  melting point: 113.6 to 114.9 °C
